# Measured values published in patent US10912814B2, “Combination formulation of three antiviral compounds” (priority 2016, dated 2021).
# How the values were obtained:
# Format in all cases: physicochemical
# [1] = Tablet dissolution in 50 mM sodium acetate buffer pH 5.0 with 2.0% w/v Polysorbate 80 and 0.001% w/v BHT, 75 rpm, 900 mL, 37° C., USP Type II
# Experimental: FIGS. 10-12 depict additional dissolution profiles for the sofosbuvir/velpatasvir SSD/voxilaprevir SSD tablets having the formulation described in Table 13 and which were used in phase 1, 2, and 3 clinical studies, where the dissolution testing was conducted at pH 5.0 acetate buffer containing 2.0% w/v polysorbate 80. Four batches of the sofosbuvir/velpatasvir SSD/voxilaprevir SSD tablets were tested, with Batch A manufactured at 100 kg and Batches B, C and D manufactured at 145 kg. All other aspects of the formulation and manufacturing process were otherwise equivalent. The four batches were packed in the same commercial configuration: 28 count, 100 mL HPDE bottle with 1 g silica gel desiccant canister and a polyester fiber coil. […] Moreover, for Batch A, the amount dissolved at 30 min remained between 98 and 100% for sofosbuvir, between 90 and 92% for velpatasvir SSD, and between 89 and 93% for voxilaprevir SSD. […] For Batch D, the amount dissolved at 30 min remained at 100% for sofosbuvir, between 90 and 91% for velpatasvir SSD, and between 89 and 91% for voxilaprevir SSD. Release of velpatasvir SSD and voxilaprevir SSD from the sofosbuvir/velpatasvir SSD/voxilaprevir SSD tablets associated with all four Batches was complete after 60 minutes.
# BCS classification = test: BCS classification
# [2] = Tablet dissolution in 50 mM sodium acetate buffer pH 5.0 with 2.0% w/v Polysorbate 80 and 0.001% w/v BHT, 75 rpm, 900 mL, 37° C., USP Type II; remark: listed apart in the source
compound,measurement,setting,value
"CC(C)OC(=O)C(C)N[P@](=O)(OC[C@H]1O[C@@H](n2ccc(=O)[nH]c2=O)[C@](C)(F)[C@@H]1O)Oc1ccccc1 (stereo in doubt) [Sofosbuvir, (S)-isopropyl 2-(((S)-(((2R,3R,4R,5R)-5-(2,4-dioxo-3,4-dihydropyrimidin-1(2H)-yl)-4-fluoro-3-hydroxy-4-methyltetrahydrofuran-2-yl)methoxy)(phenoxy)phosphoryl)amino)propanoate]",Dissolved at 30 min (%),"[1]; Batch C tablets, closed 1 g desiccant, 30° C./75% RH, 6 months",99%
same,Dissolved at 30 min (%),"[1]; Batch C tablets, closed 1 g desiccant, 40° C./75% RH, 1 month",100%
same,Dissolved at 30 min (%),"[1]; Batch C tablets, closed 1 g desiccant, Initial, time 0",99%
same,Dissolved at 30 min (%),"[1]; tablets Batch A, 30° C./75% RH, 6 mo",100%
same,Dissolved at 30 min (%),"[1]; tablets Batch A, 40° C./75% RH, 3 mo",99%
same,Dissolved at 30 min (%),"[1]; tablets Batch A, Initial, 0 mo",98%
same,Dissolved at 30 min (%),"[1]; tablets Batch B, 40° C./75% RH, 6 mo",98%
same,amount dissolved at 30 min,[1]; tablets Batch D,100%
same,Dissolved at 30 min (%),"[1]; tablets Batch D, 40° C./75% RH, 1 mo",100%
same,"aqueous solubility, pH dependence",BCS classification,high and pH-independent aqueous solubility
same,Dissolved at 30 min (%),"[2]; Batch C tablets, closed 1 g desiccant, 25° C./60% RH, 6 months",99%
same,Dissolved at 30 min (%),"[2]; Batch C tablets, closed 1 g desiccant, 30° C./75% RH, 3 months",99%
same,Dissolved at 30 min (%),"[2]; Batch C tablets, closed 1 g desiccant, 40° C./75% RH, 3 months",100%
same,Dissolved at 30 min (%),"[2]; Batch C tablets, closed 1 g desiccant, 40° C./75% RH, 6 months",99%
same,Dissolved at 30 min (%),"[2]; Lot A tablets (super-potent VEL SSD, super-potent VOX SSD), Initial, time 0",100%
same,Dissolved at 30 min (%),"[2]; Lot A tablets (super-potent VEL SSD, super-potent VOX SSD), closed, 1 g desiccant, 25° C./60% RH, 12 weeks",99%
same,Dissolved at 30 min (%),"[2]; Lot A tablets (super-potent VEL SSD, super-potent VOX SSD), closed, 1 g desiccant, 40° C./75% RH, 12 weeks",100%
same,Dissolved at 30 min (%),"[2]; Lot B tablets (sub-potent VEL SSD, sub-potent VOX SSD), Initial, time 0",83%
same,Dissolved at 30 min (%),"[2]; Lot B tablets (sub-potent VEL SSD, sub-potent VOX SSD), closed, 1 g desiccant, 25° C./60% RH, 12 weeks",82%
same,Dissolved at 30 min (%),"[2]; Lot B tablets (sub-potent VEL SSD, sub-potent VOX SSD), closed, 1 g desiccant, 40° C./75% RH, 4 weeks",85%
same,Dissolved at 30 min (%),"[2]; Lot B tablets (sub-potent VEL SSD, sub-potent VOX SSD), closed, 1 g desiccant, 40° C./75% RH, 12 weeks",84%
same,Dissolved at 30 min (%),"[2]; Lot B tablets (sub-potent VEL SSD, sub-potent VOX SSD), open, no cap, 40° C./75% RH, 4 weeks",100%
same,Dissolved at 30 min (%),"[2]; Lot C tablets (sub-potent VEL SSD, super-potent VOX SSD), Initial, time 0",99%
same,Dissolved at 30 min (%),"[2]; Lot C tablets (sub-potent VEL SSD, super-potent VOX SSD), closed, 1 g desiccant, 25° C./60% RH, 12 weeks",98%
same,Dissolved at 30 min (%),"[2]; Lot C tablets (sub-potent VEL SSD, super-potent VOX SSD), closed, 1 g desiccant, 40° C./75% RH, 4 weeks",100%
same,Dissolved at 30 min (%),"[2]; Lot C tablets (sub-potent VEL SSD, super-potent VOX SSD), closed, 1 g desiccant, 40° C./75% RH, 12 weeks",98%
same,Dissolved at 30 min (%),"[2]; Lot C tablets (sub-potent VEL SSD, super-potent VOX SSD), open, no cap, 40° C./75% RH, 4 weeks",99%
same,Dissolved at 30 min (%),"[2]; Lot D tablets (super-potent VEL SSD, sub-potent VOX SSD), closed, 1 g desiccant, 25° C./60% RH, 12 weeks",98%
same,Dissolved at 30 min (%),"[2]; Lot D tablets (super-potent VEL SSD, sub-potent VOX SSD), closed, 1 g desiccant, 40° C./75% RH, 4 weeks",98%
same,Dissolved at 30 min (%),"[2]; Lot D tablets (super-potent VEL SSD, sub-potent VOX SSD), closed, 1 g desiccant, 40° C./75% RH, 12 weeks",98%
same,Dissolved at 30 min (%),"[2]; Lot D tablets (super-potent VEL SSD, sub-potent VOX SSD), open, no cap, 40° C./75% RH, 4 weeks",99%
same,dissolution at 30 minutes,"[2]; SSD potency tablets Lot B, after 4 weeks open at 40° C./75% RH",100%
same,released at 30 minutes,[2]; tablet Lots A and B made with different sofosbuvir particle size distributions,101%
same,Dissolved at 30 min (%),"[2]; tablets Batch A, 25° C./60% RH, 3 mo",98%
same,Dissolved at 30 min (%),"[2]; tablets Batch A, 25° C./60% RH, 6 mo",98%
same,Dissolved at 30 min (%),"[2]; tablets Batch A, 30° C./75% RH, 3 mo",98%
same,Dissolved at 30 min (%),"[2]; tablets Batch A, 40° C./75% RH, 1 mo",98%
same,Dissolved at 30 min (%),"[2]; tablets Batch A, 40° C./75% RH, 6 mo",100%
same,Dissolved at 30 min (%),"[2]; tablets Batch B, 25° C./60% RH, 3 mo",99%
same,Dissolved at 30 min (%),"[2]; tablets Batch B, 25° C./60% RH, 6 mo",99%
same,Dissolved at 30 min (%),"[2]; tablets Batch B, 30° C./75% RH, 3 mo",99%
same,Dissolved at 30 min (%),"[2]; tablets Batch B, 30° C./75% RH, 6 mo",99%
same,Dissolved at 30 min (%),"[2]; tablets Batch B, 40° C./75% RH, 1 mo",100%
same,Dissolved at 30 min (%),"[2]; tablets Batch B, 40° C./75% RH, 3 mo",100%
same,Dissolved at 30 min (%),"[2]; tablets Batch B, Initial, 0 mo",99%
same,Dissolved at 30 min (%),"[2]; tablets Batch D, Initial, 0 mo",100%
same,Dissolved at 30 min (%),"[2]; tablets from VEL SSD 7.0% / VOX SSD 3.2% water content, Initial, time 0",100%
same,Dissolved at 30 min (%),"[2]; tablets from VEL SSD 7.0% / VOX SSD 3.2% water content, closed, 1 g desiccant, 25° C./60% RH, 12 weeks",98%
same,Dissolved at 30 min (%),"[2]; tablets from VEL SSD 7.0% / VOX SSD 3.2% water content, closed, 1 g desiccant, 40° C./75% RH, 12 weeks",99%
same,Dissolved at 30 min (%),"[2]; tablets from VEL SSD 7.0% / VOX SSD 3.2% water content, open, no desiccant, 40° C./75% RH, 4 weeks",100%
same,Dissolved at 30 min (%),"[2]; tablets from copovidone with 544 ppm (VEL SSD) / 655 ppm (VOX SSD) peroxides, Initial, time 0",99%
same,Dissolved at 30 min (%),"[2]; tablets from copovidone with 544 ppm (VEL SSD) / 655 ppm (VOX SSD) peroxides, closed, 1 g desiccant, 25° C./60% RH, 12 weeks",99%
same,Dissolved at 30 min (%),"[2]; tablets from copovidone with 544 ppm (VEL SSD) / 655 ppm (VOX SSD) peroxides, closed, 1 g desiccant, 40° C./75% RH, 4 weeks",99%
same,Dissolved at 30 min (%),"[2]; tablets from copovidone with 544 ppm (VEL SSD) / 655 ppm (VOX SSD) peroxides, closed, 1 g desiccant, 40° C./75% RH, 12 weeks",99%
same,Dissolved at 30 min (%),"[2]; tablets from copovidone with 544 ppm (VEL SSD) / 655 ppm (VOX SSD) peroxides, open, no desiccant, 40° C./75% RH, 4 weeks",100%
same,Dissolved at 30 min (%),"[2]; tablets, desiccant study, closed, 1 g desiccant, 40° C./75% RH, 4 weeks",99%
same,Dissolved at 30 min (%),"[2]; tablets, desiccant study, closed, 1 g desiccant, 40° C./75% RH, 12 weeks",99%
same,Dissolved at 30 min (%),"[2]; tablets, desiccant study, closed, 1 g desiccant, 40° C./75% RH, 24 weeks",100%
same,Dissolved at 30 min (%),"[2]; tablets, desiccant study, closed, no desiccant, 25° C./60% RH, 12 weeks",99%
same,Dissolved at 30 min (%),"[2]; tablets, desiccant study, closed, no desiccant, 40° C./75% RH, 12 weeks",99%
